Assays:
[1] = tested on: acute tympanic perforations in mice; assay: HB-EGF inhibitor applied to acute tympanic membrane perforations (chronic TM perforation model); assay type: in vivo; conditions: for Perforations open at 2 months / Perforations open at 3 months: mice, OSU8-1 10 mM on gel foam over seven days
Protocol: EGFR ligand shedding can be inhibited to create a chronic tympanic membrane perforation model. Subtotal perforations were created in the pars tensa of TMs in 20 mice using a curved needle. OSU8.1 (10 mM), a selective HB-EGF inhibitor (see Tokumaru et al. (2000) J. Cell Biol.), was injected onto gel foam (placed through and onto the perforation) over seven days. Mice were sacrificed at time points (Day 2, 7, 14, 30, 44, 60 and 90) to observe the effects on keratinocyte migration. The contralateral ear was used as a control with saline placed onto gel foam. All of these were closed within 2 weeks. Five of seven (71%) of the treatment ears were open at three months. Perforation size was stable over three months (using ImageJ to calculate the perforation area as a percentage of the pars tensa area). A larger cohort was undertaken with 87.9% (n=58) having chronic perforations at 3 months.
100% of HB-EGF inhibitor treated perforations were present at two months compared to 5% of controls and 71% were present at three months compared to 5% of controls

[2] = tested on: chronic perforations in mice ears; assay: HB-EGF treatment of chronic tympanic membrane perforations; assay type: in vivo; conditions: 40 μl gel, 5 μg/ml, sustained release chitosan-based polymer; at 4 weeks; p<0.01 vs polymer only
Protocol: HB-EGF heals chronic tympanic membrane perforations. When a cohort of chronic perforations in mice ears were treated with 40 μl of a gel containing recombinant HB-EGF at a concentration of 5 μg/ml (sustained release dose via a bioabsorbable chitosan-based polymer) 92% (22 of 24) healed, compared to 38% (10 of 26) of controls (polymer only) at 4 weeks (p<0.01). […] This is the first growth factor treatment tested in an animal model of chronic perforation that has shown significant benefit over control.

[3] = tested on: chronic perforations and ET occlusion in mice; assay: HB-EGF treatment of chronic TM perforations with Eustachian tube occlusion; assay type: in vivo
Protocol: HB-EGF heals chronic tympanic membrane perforations with Eustachian tube occlusion. An existing rat model of ET occlusion (see Herda et al. (2002) Laryngoscope 112:1657-62) was adapted to the mouse and has since been performed in 80 live mice with success. The ET occlusion was performed with the chronic perforation model described above. This created a wet sterile discharging perforation at 3 months. This model mimics the human condition of chronic perforation combined with ET dysfunction.
When a cohort of mice with this model (chronic perforations and ET occlusion) were treated with recombinant HB-EGF, 40 μl at a concentration of 5 μg/ml (sustained release dose via a bioabsorbable chitosan polymer) 94% (18 of 19) healed compared to 9% (2 of 23) of controls (polymer only) at 6 weeks (p<0.01). […] The ability to overcome this critical step in TM chronic wound healing using HB-EGF to activate EGFR ectodomain ligand shedding in the presence of middle ear effusions and ET occlusion is useful in treating patients with chronic tympanic membrane perforation.

[4] = tested on: chronic perforation model with ET occlusion inoculated with Pseudomonas aeruginosa; assay: HB-EGF treatment in animal model for chronic suppurative otitis media (CSOM); assay type: in vivo, mice; conditions: polymer and HB-EGF at 5 μg/ml
From the text: Testing in an animal model for chronic suppurative otitis media. After creating the chronic perforation model with ET occlusion, Pseudomonas aeruginosa (dose of 6×10^9 colony forming units per ml) were inoculated into the middle ear through the existing chronic perforations. At 2 weeks the ear fluid was collected and sent for polymerase chain reaction (PCR) to confirm the presence of bacteria. This positive PCR validated the CSOM model. The mice were then divided into two cohorts. One received polymer only. The other received polymer and HB-EGF at 5 μg/ml (same dose used in above models). 100% of the HB-EGF group healed (16 of 16) compared to 41% (7/17) in the control group (p<0.01). In the control group the healing was also different when it did occur. The TM was often very thin and transluscent compared to a slightly opaque normal TM. […] The ability to still overcome this critical step in TM chronic wound healing using HB-EGF to activate EGFR ectodomain ligand in the closest model to human CSOM validates the method of treatment.

| Molecule | chronic perforations at 3 months, larger cohort ([1]; larger cohort, n=58, 3 months) [%] | Perforations open at 2 months [1] [%] | Perforations open at 2 months ([1]; listed as HB-EGF inhibitor) [%] | Perforations open at 3 months ([1]; 3 months) [%] | Perforations open at 3 months ([1]; 3 months, listed as HB-EGF inhibitor) [%] | Perforations open at 3 months ([1]; 3 months, listed as OSU8.1) [%] | Perforation size (perforation area as a percentage of the pars tensa area) ([1]; over three months, ImageJ) | chronic perforations healed [2] [%] | chronic perforations with ET occlusion healed ([3]; 40 μl at 5 μg/ml, sustained release chitosan polymer, at 6 weeks, p<0.01 vs polymer only) [%] | histology of perforation closure ([3]; chronic perforations and ET occlusion model) | appearance of healing in CSOM model [4] | perforations healed in CSOM model ([4]; p<0.01 vs polymer only) [%] |
| --- | --- | --- | --- | --- | --- | --- | --- | --- | --- | --- | --- | --- |
| CNC(=O)[C@@H](NC(=O)[C@H](CC(C)C)[C@H](C)C(=O)NO)c1ccccc1 [OSU8-1] | 87.9 | 100 | 100 | 71 | 71 | 71 | stable | – | – | – | – | – |
| HB-EGF: recombinant heparin binding epidermal growth factor, delivered in a bioabsorbable chitosan-based polymer gel at 5 μg/ml (protein, UniProt Q99075 63-148, looked up, Heparin-binding EGF-like growth factor in chitosan-based gel) Heparin-binding EGF-like …: DLQEADLDLLRVTLSSKPQALATPNKEEHGKRKKKGKGLGKKRDPCLRKYKDFCIHGECKYVKELRAPSCICHPGYHGERCHGLSL | – | – | – | – | – | – | – | 92 | 94 | close with thick layer of keratinocytes | appeared normal | 100 |

From US11963998B2, “Modulation of heparin-binding epidermal growth factor activity for tympanic membrane healing” (The Board of Trustees of the Leland Stanford Junior …, priority 2013, dated 2024)
